Kd data for two compounds are collected here from paper PMC7600006, “Dissecting the Cytochrome P450 OleP Substrate Specificity: Evidence for a Preferential Substrate” (Biomolecules, 2020).

SMILES strings stand for the structures.

Assay [1] has as its target T1, cytochrome P450 OleP (Streptomyces antibioticus, UniProt Q59819).
T1 construct: wild type enzyme
T1 sequence (Q59819 1-407): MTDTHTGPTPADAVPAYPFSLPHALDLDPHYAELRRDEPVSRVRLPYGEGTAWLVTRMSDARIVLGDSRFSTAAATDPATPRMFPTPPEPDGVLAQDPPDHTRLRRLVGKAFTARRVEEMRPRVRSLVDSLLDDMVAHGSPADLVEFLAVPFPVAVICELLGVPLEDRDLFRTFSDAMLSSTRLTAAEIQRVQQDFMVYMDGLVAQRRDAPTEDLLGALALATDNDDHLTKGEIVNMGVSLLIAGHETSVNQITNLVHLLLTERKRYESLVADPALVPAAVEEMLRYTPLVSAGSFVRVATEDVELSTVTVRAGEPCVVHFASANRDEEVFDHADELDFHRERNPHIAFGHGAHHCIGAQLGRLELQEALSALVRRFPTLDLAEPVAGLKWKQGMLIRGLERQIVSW
In words: UV-visible equilibrium titration (Type I Soret shift); crystal structures 6ZHZ, 6ZI2 and 6ZI7. The class given is binding.

Assay [2] concerns the target T1, cytochrome P450 OleP. In words: UV-visible equilibrium titration (Type I Soret shift); crystal structure of the ternary complex with L-rhamnose ([…] Å). The class given is binding.

A word on the Kd: it is the equilibrium constant for the complex coming apart. Turning to `C[C@@H]1[C@@H](O)[C@@H](C)C[C@H](C)C(=O)[C@H](C)[C@@H](O)[C@@H](C)[C@@H](C)OC(=O)[C@H](C)[C@H]1O` [DEO, 8.8a-deoxyoleandolide], the Kd at cytochrome P450 OleP [1] came to 23 ± 2 µM. Regarding `CC[C@H]1OC(=O)[C@H](C)[C@@H](O)[C@H](C)[C@@H](O)[C@@H](C)C[C@@H](C)C(=O)[C@H](C)[C@@H](O)[C@H]1C` [6DEB, 6-deoxyerythronolide B], the Kd at cytochrome P450 OleP [2] is 3.2 ± 0.1 µM.
